According to patent US8088892B2, “Inhibitors of proteins from the Rho-GEF family” (Centre National de la Recherche Scientifique (C.N.R.S.), priority 2002, dated 2012):
Where no end group is shown, it is not given here.

Experiments:
Format in all cases: cell-based
[1] = test system: TrioGEFD2-mediated RhoA activation; experiment: RhoA activity assay (Rhotekin RBD pull-down) in COS cells; conditions: COS cells co-transfected, 48 hours
From the text: FIG. 5B represents the inhibitory effect of TRIPα on TrioGEFD2-mediated RhoA activation in intact cells using the RhoA activity assay, COS cells were transfected with GFP-TRIPα (left line), TrioGEFD2 (middle line) or both (right line). Cell lysates were subjected to GST-pulldown using the recombinant RBD (RhoA binding domain) fragment of the RhoA-specific effector Rhotekin. The presence of the GTP-bound form of RhoA and of the total RhoA protein was detected using a monoclonal anti-RhoA antibody and is represented in the upper two panels. GFP-TRIPα and TrioGEFD2 expression in the cell lysates is shown in the lower two panels.
Quantification of the RhoA activity assay is shown in the right part of the figure. The y-axis represents the ratio between active RhoA and total RhoA, in arbitrary units.
The Inventors then wanted to assess the inhibition by TRIPα of TrioGEFD2-mediated activation of endogenous RhoA in intact cells. To do so, the RhoA activity assay was used to detect the active GTP-bound form of RhoA (Ren et al., 1999). Briefly, COS cells were transfected as described in FIG. 5A with TrioGEFD2 in absence or in the presence of GFP-TRIAPα. 48 hours after transfection, cell lysates were subjected to GST-pull down using 20 μg of the recombinant RBD (RhoA binding domain) fragment of the RhoA-specific effector Rhotekin, that binds only to the activated GTP-bound form of RhoA.

[2] = test system: ectopically expressed TrioGEFD2 in PC12 cells; experiment: NGF-induced neurite outgrowth in PC12 cells expressing TrioGEFD2; conditions: PC12 co-transfected with TrioGEFD2, NGF 50 ng/ml 16 hours
Experimental: FIG. 5C represents the inhibition by TRIPα of the TrioGEFD2 effect in neuronal morphology. Immunofluorescence images of PC12 cells co-transfected with HA-TrioGEFD2 and either GFP-TRIPα (panels d, e, f) or GFP alone panels a, b, c) are shown. After 48 hours of expression, cells were treated for 16 hours with NGF (nerve growth factor) (50 ng/ml) and fixed. Expression of GFP and GFP-TRIPα was directly visualised (a, d) whereas overexpressed TrioGEFD2 was detected using the 12CA5 anti-HA antibody followed by AMCA-conjugated anti-mouse IgG (b, e). Filamentous actin was stained with Rhodamine-conjugated Phalloidin (c, f). Scale bar: 20 μm.
(§1) Cells were transfected with HA-tagged TrioGEFD2 (left side of the figure), myc-tagged KalGEFD2 (middle of the figure) or RhoAV14 (a constitutively active mutant of RhoA) (right side of the figure), and with either GFP-TRIPα (white bars), GFP-TRIPβ (hatched bars) or GFP alone (black bars). Cells were processed as described in FIG. 5C and the number of co-transfected cells with neurites was counted.
(§2) Numerous reports have established Rho-GTPases as key regulators of neuronal morphology (Luo, 2000). In neuronal cell lines, activation of RhoG, Rac and Cdc42 induces neurite outgrowth, while RhoA stimulation antagonises this effect by promoting neurite retraction (Katoh et al., 2000; Kozma et al., 1997; Yamaguchi et al., 2001). The PC12 cell line is a useful cellular model for studying Nerve Growth Factor (NGF)-induced neuronal differentiation. PC12-E2 cells were plated on collagen-coated 12 mm coverslips as described previously (Estrach et al., 2002) and transfected with the Lipofectamine Plus reagent (Life Technologies) according to the manufacturer's instructions. After transfection and differentiation with NGF (Promega, 50 ng/ml in DMEM medium supplemented with 0.5% horse serum (HS)) for 16 hours, PC12 cells were fixed and permeabilised as described (Estrach et al., 2002). […] Images were recorded using a Hamamatsu CCD camera. All transfections were repeated at least three times, and an average of 200 cells was counted each time. […]

[3] = test system: KalGEFD2 in PC12 cells; experiment: NGF-induced neurite outgrowth in PC12 cells expressing KalGEFD2; conditions: PC12 co-transfected with KalGEFD2, NGF 50 ng/ml
From the text: as §1
as §2, with “instructions.” for “instructions. After transfection and differentiation with NGF (Promega, 50 ng/ml in DMEM medium supplemented with 0.5% horse serum (HS)) for 16 hours, PC12 cells were fixed and permeabilised as described (Estrach et al., 2002).”

[4] = test system: NGF-differentiated PC12 cells; experiment: Serum-induced neurite retraction; conditions: 15 min after serum (10% HS and 5% FCS); NGF 50 ng/ml 16 hours
Experimental: FIG. 6A represents histograms quantifying the effects of GFP-TRIPα or GFP on serum induced neurite retraction in NGF-differentiated PC12 cells. The X-axis represents the time after serum addition in minutes and the Y-axis represents the percentage of transfected cells with neurites.
Cells were transfected with GFP-TRIPα (white bars) or GFP (black bars) and differentiated with NGF (50 ng/ml). Serum was added and neurite retraction was followed for 15 minutes. The number of transfected cells with neurites was counted from at least 200 cells in 3 independent experiments.
(§3) Since Trio is an activator of RhoA and is expressed in PC12 cells (Estrach et al., 2002), it was analysed whether TRIPα could interfere with serum-induced neurite retraction in NGF-differentiated PC12 cells. […] After NGF treatment, cells were subjected to serum addition (DMEM medium supplemented with 10% HS and 5% fetal calf serum (FCS)) from 0 to 15 min (FIG. 6A). Cells were then fixed and permeabilised (Estrach et al., 2002) and observed as described in FIG. 5. Cells with neurites are defined as cells with neurites of at least twice the length of the cell body.

[5] = test system: PC12 cells; experiment: NGF-induced neurite outgrowth; conditions: NGF 50 ng/ml, 1 to 24 hours
Experimental: PC12 were transfected with GFP-TRIPα (lack squares) or GFP (white diamonds) and subjected to a time-course exposure to NGF (50 ng/ml). At each time-point cells were fixed and the number of transfected cells with neurites was counted from at least 200 cells.
as §3
However, since the NGF treatment was performed for 16 hours, it was still possible that the effect of TRIPα on the NGF-differentiation signal was masked by the long NGF exposure. To test this hypothesis, PC12 cells expressing GFP-TRIPα or […] were subjected to a time-course exposure to NGF (50 ng/ml) for 1 to 24 hours.

Substance: GFP-TRIPα: variable region of TRIAPα (TRIPα) fused to GFP, expressed from pEGFP-C3 plasmid (AREGADGAICGYNLATLVMLGPSERVFCPLCEPCSSDIYELM; cysteine pairing not given here; also: fused to GFP (carrier not in chain))
- Inhibition of TrioGEFD2-mediated RhoA activation in intact cells [1]: significantly inhibited
- Reversion of TrioGEFD2 inhibition of NGF-induced neurite outgrowth [2]: reverted the Trio-dependent inhibition
- percentage of co-transfected cells with neurites [2]: 45%
- Effect on KalGEFD2 inhibition of NGF-induced neurite extension [3]: similarly inhibited by KalGEFD2 either with or without
- percentage of transfected cells with neurites after serum addition [4]: 32%
- Effect on NGF-induced neurite outgrowth, time course [5]: responded to NGF treatment more quickly than the control cells
